Where a SMILES comes first, the peptide text is derived from it. The star is where a group is joined. 5FAM = O=C1OC2(c3ccc(O)cc3Oc3cc(O)ccc32)c2ccc(C(=O)*)cc21
Assays:
[1] = test system: Hh pathway, Sufu −/− MEFs with SUFU-FL; experiment: Hh pathway reactivation in Sufu −/− MEFs expressing SUFU-FL; type: cell-based, mouse; conditions: 48–72 h, luciferase
Experimental: (§1) Sufu ^−/− mouse embryonic fibroblast (MEF) cells (Svärd et al., 2006[▶]) were transfected with a mixture of p8x3′Gli-BS LucII or p8x3′Gli-mBS LucII reporter constructs (Sasaki et al., 1997[▶]; generous gifts from Hiroshi Sasaki) together with pRL-SV40 (Promega) internal control using Lipofectamine LTX with Plus reagent (Invitrogen) according to the manufacturer’s instructions. Following transfection, Sufu ^−/− MEF cells were grown until the culture reached confluency (24–48 h) and the cells were then switched to low-serum medium (0.5% FBS) with 100–200 nM SAG (kindly provided by Jan Bergman, Karolinska Institutet), 10 µM purmorphamine (Calbiochem) or Shh conditioned medium (1:4) and grown for an additional 48–72 h. Cell lysis and luciferase activity measurements were performed using a Dual Luciferase Activity Assay Kit (Promega). For statistical evaluation of reporter gene assays, a one-tailed paired Student’s t-test was used. All activity measurements were performed at least three times in independent experiments.

[2] = test system: Hh pathway, Sufu −/− MEFs with SUFU-Δ; experiment: Hh pathway reactivation in Sufu −/− MEFs expressing SUFU-Δ; type: cell-based, mouse; conditions: 48–72 h, luciferase
Experimental: as §1

[3] = test system: Hh pathway, Sufu −/− MEFs with SUFU-SH; experiment: Hh pathway reactivation in Sufu −/− MEFs expressing SUFU-SH; type: cell-based, mouse; conditions: 48–72 h, luciferase
Experimental: as §1

[4] = test system: Hh pathway, Sufu −/− MEFs with SUFU-IDRfly; experiment: Hh pathway reactivation in Sufu −/− MEFs expressing SUFU-IDRfly; type: cell-based, mouse; conditions: SAG 100–200 nM, 48–72 h, luciferase
Experimental: as §1

MBP-SUFU-FL [5] = molecular target: T1, MBP-SUFU-FL (Homo sapiens, UniProt Q9UMX1); experiment: Microscale thermophoresis with FAM-GLI1p, MBP-SUFU-FL; conditions: binding to MBP-SUFU-FL; 50 nM FAM-GLI1p
T1 construct: containing residues 32–483 of human SUFU and a C-terminal hexahistidine tag; hexahistidine tag (C); made in house; host or cells: Escherichia coli JM109 (DE3)
T1 sequence (Q9UMX1 32-483, other chains not shown): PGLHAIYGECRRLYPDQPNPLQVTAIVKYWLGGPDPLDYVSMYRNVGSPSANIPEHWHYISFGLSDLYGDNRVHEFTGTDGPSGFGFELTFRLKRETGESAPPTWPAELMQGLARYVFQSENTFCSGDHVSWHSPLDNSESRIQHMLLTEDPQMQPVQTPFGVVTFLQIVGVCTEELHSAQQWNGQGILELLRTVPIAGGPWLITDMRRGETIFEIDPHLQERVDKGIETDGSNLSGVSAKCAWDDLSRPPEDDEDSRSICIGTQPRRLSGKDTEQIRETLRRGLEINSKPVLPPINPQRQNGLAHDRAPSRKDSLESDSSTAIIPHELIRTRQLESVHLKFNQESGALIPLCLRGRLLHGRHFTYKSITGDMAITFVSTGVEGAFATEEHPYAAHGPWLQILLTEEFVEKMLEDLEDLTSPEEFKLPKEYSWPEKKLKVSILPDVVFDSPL
Experimental: (§2) A 5-FAM-labelled peptide (FAM-GLI1p) comprising residues 115–131 of GLI1 (Supplementary Table S1b) was synthesized by Pepceuticals Ltd. A titration series of each recombinant protein was prepared by serial 1:1 dilutions in MST buffer (50 mM Tris–HCl pH 7.6, 150 mM NaCl, 10 mM MgCl2, 0.05% Tween-20) and mixed in a 1:1 ratio with FAM-GLI1p to give final concentrations of 50 nM FAM-GLI1p with MBP-SUFU constructs in the ranges 14.2–29 070 and 54–110 500 nM. Reactions were aspirated into glass capillaries and the thermophoretic movement of FAM-GLI1p was monitored using a Monolith NT.115 instrument (NanoTemper Technologies; Wienken et al., 2010[▶]), with a laser on for 30 s and off for 5 s and a laser power/voltage of 20% for MBP-SUFU-FL and the MBP-SUFU-FL mutants, 40% for MBP-SUFU-Δ and 80% for MBP-SUFU-SH. Fluorescence was measured before laser heating (F Cold) and after 30 s of laser-on time (F Hot). The normalized fluorescence F Hot/F Cold reflects the concentration ratio of labelled molecules. F Hot/F Cold was plotted directly and multiplied by a factor of […], yielding a relative change in fluorescence per thousand. K d was calculated from three independent thermophoresis measurements using NanoTemper software (NanoTemper Technologies).

MBP-SUFU-Δ = molecular target: T2, MBP-SUFU-Δ (Homo sapiens, UniProt Q9UMX1, DEL285-359/L360P/P281R/P282G/R280S/S279P); experiment: Microscale thermophoresis with FAM-GLI1p, MBP-SUFU-Δ; conditions: binding to MBP-SUFU-Δ; 50 nM FAM-GLI1p
T2 construct: subcloning different SUFU32–483 variants into vector pLJMBP4c; His tag (as in MBP-SUFU-FL; purified on HisTrap) (C); made in house; host or cells: Escherichia coli JM109 (DE3)
T2 sequence (Q9UMX1 with tags, fused parts or gaps S279P/R280S/P281R/P282G/DEL285-359/L360P limits assumed, other chains not shown): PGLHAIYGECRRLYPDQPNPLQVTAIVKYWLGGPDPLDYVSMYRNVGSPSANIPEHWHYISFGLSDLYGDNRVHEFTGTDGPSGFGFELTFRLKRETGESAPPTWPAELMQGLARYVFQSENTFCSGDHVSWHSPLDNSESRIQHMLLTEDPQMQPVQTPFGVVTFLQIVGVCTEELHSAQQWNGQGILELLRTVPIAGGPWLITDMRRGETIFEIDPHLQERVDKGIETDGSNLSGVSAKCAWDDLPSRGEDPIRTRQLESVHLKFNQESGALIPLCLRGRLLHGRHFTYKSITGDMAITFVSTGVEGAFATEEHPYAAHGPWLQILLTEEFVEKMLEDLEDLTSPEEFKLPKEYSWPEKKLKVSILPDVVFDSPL
Experimental: as §2

MBP-SUFU-SH = experiment: Microscale thermophoresis with FAM-GLI1p, MBP-SUFU-SH; set-up: species or system human; conditions: binding to MBP-SUFU-SH; 50 nM FAM-GLI1p
Experimental: as §2

MBP-SUFU-FL [6] = molecular target: T1, MBP-SUFU-FL; experiment: HDX protection of MBP-SUFU-FL by GLI peptides; type: binding
Experimental: To compare amide HDX kinetics between MBP-SUFU-FL and MBP-SUFU-Δ, 4 µl of each protein (both at 11 mg ml^−1 in 50 mM Na HEPES pH 7.0, 50 mM NaCl, 5 mM β-mercaptoethanol, 1.5 mM maltose) was mixed with 13 µl deuterated buffer with the same ionic composition as the protein sample. For MBP-SUFU-FL–Gli3p interaction experiments, 45 µl MBP-SUFU-FL (11 mg ml^−1) was mixed with 5 µl Gli3p (6 mM; a 5.5-fold excess) and incubated for 1 h. In the latter case, exchange was initiated by mixing 4 µl MBP-SUFU-FL–Gli3p with 13 µl deuterated buffer with the same ionic composition as the sample. Each reaction was stopped by adding 9 µl quenching solution (4 M urea, 50 mM TCEP, 1% TFA) and flash-freezing in liquid N2. Deuteration reactions were incubated for 60, 300, 600 and 1800 s for the MBP-SUFU-FL and MBP-SUFU-Δ experiments and 300, 600 and 1800 s for the MBP-SUFU-FL–Gli3p interaction experiments (at 4°C, in triplicate). A 24 h incubation was used as a fully deuterated sample for back-exchange correction.
Samples were analyzed in a semi-automated HDX-MS system (Biomotif AB, Sweden) in which manually injected samples were automatically digested, cleaned and separated at 1.0°C. […]

[7] = purmorphamine 10 µM, p ≤ 0.05, n = 5

Compound: c1ccc2c(Oc3nc(Nc4ccc(N5CCOCC5)cc4)c4ncn(C5CCCCC5)c4n3)cccc2c1 [Purmorphamine]
- pathway reactivation [1, 7]: the same disparate effects on SUFU-FL and SUFU-Δ repressive function
- pathway reactivation [2, 7]: the same disparate effects on SUFU-FL and SUFU-Δ repressive function
- pathway reactivation ([2]; purmorphamine 10 µM, p ≤ 0.05, n = 5, listed as purmorphamine): Lack of Hh pathway reactivation
- pathway reactivation ([3]; purmorphamine 10 µM): Lack of Hh pathway reactivation

Compound: CNC1CCC(N(Cc2cccc(-c3ccncc3)c2)C(=O)c2sc3ccccc3c2Cl)CC1 (stereo not shown) [SAG]
- pathway reactivation ([1]; SAG 100–200 nM): overrode repression by the full-length protein
- pathway reactivation ([2]; SAG 100–200 nM, p ≤ 0.005, n = 10): failed to reactivate the pathway
- pathway reactivation ([3]; SAG 100–200 nM, p ≤ 0.01, n = 4): failed to reactivate the pathway
- pathway reactivation [4]: repression could not be relieved

Compound: CC[C@H](C)[C@H](NC(=O)[C@H](CO)NC(=O)[C@H](CC(C)C)NC(=O)[C@H](Cc1c[nH]cn1)NC(=O)CNC(=O)[C@H](Cc1ccc(O)cc1)NC(=O)[C@H](CO)NC(=O)CNC(=O)CNC(=O)[C@@H]1CCCN1C(=O)[C@H](CO)NC(=O)[C@@H](NC(=O)c1ccc2c(c1)C(=O)OC21c2ccc(O)cc2Oc2cc(O)ccc21)[C@@H](C)O)C(=O)NCC(=O)N[C@H](C(=O)N[C@@H](CCSC)C(=O)N[C@@H](CO)C(=O)N1CCC[C@H]1C(=O)O)[C@@H](C)O [FAM-GLI1p] (5FAM-TSPGGSYGHLSIGTMSP-OH; C-terminus assumed)
- thermophoretic movement of the peptide on binding (MBP-SUFU-FL [5]): increased the rate of movement in the thermophoretic gradient
- thermophoretic movement of the peptide on binding (MBP-SUFU-Δ): decreased it
- thermophoretic movement of the peptide on binding (MBP-SUFU-SH): decreased it

Compound: GLI3p-SHC: GLI3 peptide that terminates at His336; residues 328–336 (SSASGSYGH)
- protection of MBP-SUFU-FL from deuteration (HDX) (MBP-SUFU-FL [6]; GLI3 peptide that terminates at His336, data not shown): unable to protect MBP-SUFU-FL from deuteration

Compound: GLI3p: corresponding peptide from human GLI3; residues 328–344 (SSASGSYGHLSASAISP)
- protection of MBP-SUFU-FL from deuteration (HDX) (MBP-SUFU-FL [6]; Gli3p 5.5-fold excess, 1 h pre-incubation, 300, 600 and 1800 s exchange at 4°C, in triplicate, LC-MS): more protected from exchange in the presence of the peptide
